Laboratory results taken from patent publication US10953040B2, “Methods of treating bacterial infections with penam β-lactam antibiotics and branched poly(ethylenimine)” (priority 2015, dated 2021).
Converted amounts (≈) assume the structure as drawn. “And” between values parts separate entries of the source, which are not always exact repeats. Equal values may be shown once. “Also recorded” adds a separate entry of the source. Read-outs that look alike come from different tables or passages of the source.

What was measured:
Format in all cases: cell-based
[1] = tested on: methicillin-resistant Staphylococcus aureus (MRSA) strain ATCC 700787; assay: microbe, parasite or virus in culture; conditions: for MIC / concentration inhibiting MRSA growth: FIG. 6-8; for MIC: Staphylococcus aureus; for synergy with BPEI / change of efficacy against MRSA on addition of BPEI: BPEI 2.65 μg/mL, FIG. 6-10
Method: (§1) A stock culture was diluted in tryptic soy broth (TSB) and delivered into pre-sterilized 96-well plates. Stock solutions of BPEI and antibiotics, prepared in DMSO, were added to each well of a 96-well plate (final DMSO concentration was 1%), followed by inoculation with MRSA in TSB. Optical density measurements were performed with a Tecan Infinite M200 plate reader and an initial OD600 value recorded. The plates were incubated for 20 h in a humidified incubator at 37° C. Plates were removed, orbitally shaken, and a final OD600 value recorded. […] to obtain the change in OD600 (recorded in the figures as ΔOD600). Antimicrobial activity was determined by the change in optical density. Duplicate measurements were performed and the average reported.
(§2) Using the average ΔOD600 values, separate MIC values for BPEI and ampicillin were determined by the lowest concentration of each that inhibited growth.

[2] = tested on: methicillin-resistant Staphylococcus aureus (MRSA) strain ATCC 700787; assay: MRSA checkerboard growth inhibition assay with FIC; conditions: for MIC: Staphylococcus aureus; for interaction with BPEI by FIC values (synergy / additive): OD600<0.05 = growth inhibition; for OD600 of growth media: 20 hours
Text: The fractional inhibitory concentration (FIC) as used herein is a measure of the interaction of two agents, such as an antibiotic and a BPEI compound, used together, and is an indicator of synergy. FIC uses a value of the MIC of each of the independent agents, e.g., MICA and MICB for agents A and B, for a particular bacterium as the basis, then takes the concentration of each component in a mixture where an MIC(A in B) is observed. For example, for a two component system of agents A and B, MIC(A in B) is the concentration of A in the compound mixture and MIC(B in A) is the concentration of B in the compound mixture. The FIC is defined as follows: FICA=(MIC(A in B)/MICA) Eqn. 1 FICB=(MIC(B in A)/MICB) Eqn. 2 FICA+B=FICA+FICB Eqn. 3
Synergism (i.e., the two compounds together provide a synergistic effect) is defined herein as occurring when FICA+B≤0.5. The mixture is defined as having an additive effect when […]. When, FICA+B>4 the mixture is considered to have an antagonistic interaction. An example of how FIC is used to determine synergism is shown in U.S. Pat. No. 8,338,476, the entirety of which is incorporated herein by reference in its entirety.
as §1, §2

[3] = tested on: Escherichia coli ATCC 11775; assay: E. coli growth inhibition assay (ΔOD600 after 20 h)
Method: (§3) The bacteria used in this work were obtained from the American Type Culture Collection (methicillin-resistant Staphylococcus aureus (MRSA) strain ATCC 700787, Staphylococcus aureus ATCC 25923, Escherichia coli ATCC 11775, Bacillus subtilis (Ehrenberg) Cohn ATCC 23059). Chemicals from Sigma-Aldrich (e.g., DMSO, ampicillin, methicillin, vancomycin, chloramphenicol, and novobiocin) were used as purchased.
as §1

[4] = tested on: Staphylococcus aureus ATCC 25923; assay: non-resistant S. aureus growth inhibition assay (ΔOD600 after 20 h); conditions: ATCC25923, ampicillin by itself, FIG. 14
Method: as §3, §1

[5] = with BPEI 2.65 μg/mL (2.7 μg/mL)
[6] = without BPEI, checkerboard FIG. 18-21, read-out: MIC

SMILES: CC1(C)S[C@@H]2[C@H](NC(=O)[C@H](N)c3ccc(O)cc3)C(=O)N2[C@H]1C(=O)O [amoxicillin]
- MIC / concentration inhibiting MRSA growth ([1]; antibiotic without BPEI): 58 µg/mL (≈ 159 µM)
- MIC / concentration inhibiting MRSA growth [1, 5]: 30 µg/mL and 29 µg/mL
- MIC [2, 6]: > 32 µg/mL
- interaction with BPEI by FIC values (synergy / additive) ([2]; checkerboard FIG. 18-21): synergistic activity

SMILES: CC1(C)S[C@@H]2[C@H](NC(=O)[C@H](N)c3ccccc3)C(=O)N2[C@H]1C(=O)O [ampicillin]
- MIC ([1]; read-out: MIC for ampicillin, with BPEI 2.7 μg/mL, FIG. 2): 12 to 25 µg/mL (≈ 34.3 to 71.5 µM)
- MIC ([1]; read-out: MIC for ampicillin, with BPEI 26 μg/mL, FIG. 5): ~1.2 µg/mL (≈ 3.43 µM)
- MIC ([1]; read-out: MIC for ampicillin, without BPEI, FIG. 2): > 50 µg/mL
- MIC ([1]; read-out: MIC for ampicillin, without BPEI, FIG. 3 (second data set)): 50 µg/mL (≈ 143 µM)
- MIC ([2]; with BPEI 8 μg/mL, Table 1, read-out: ampicillin MIC): 8 µg/mL
- MIC ([2]; with low-Mw BPEI 16 μg/mL, Table 1, read-out: ampicillin MIC): 1 µg/mL
- MIC ([2]; without BPEI, Table 1, read-out: ampicillin MIC): 32 µg/mL
- MIC [2, 6]: > 32 µg/mL
- OD600 of growth media ([2]; ampicillin 0.125 + BPEI 0 μg/mL): 0.4361
- OD600 of growth media ([2]; ampicillin 0.250 + BPEI 0 μg/mL): 0.4282
- OD600 of growth media ([2]; ampicillin 0.500 + BPEI 0 μg/mL): 0.4342
- OD600 of growth media ([2]; ampicillin 1 + BPEI 0 μg/mL): 0.4289
- OD600 of growth media ([2]; ampicillin 2 + BPEI 0 μg/mL): 0.4294
- OD600 of growth media ([2]; ampicillin 4 + BPEI 0 μg/mL): 0.4375
- OD600 of growth media ([2]; ampicillin 8 + BPEI 0 μg/mL): 0.4344
- OD600 of growth media ([2]; ampicillin 16 + BPEI 0 μg/mL): 0.3287
- OD600 of growth media ([2]; ampicillin 32 + BPEI 0 μg/mL): 0.0003
- OD600 of growth media ([2]; ampicillin 64 + BPEI 0 μg/mL): 0.0014
- interaction with BPEI by FIC values (synergy / additive) ([2]; checkerboard FIG. 18-21): synergistic activity; also recorded: Synergy
- factor by which the ampicillin MIC is lowered ([2]; with low-Mw BPEI 16 μg/mL): 32 ×
- MIC ([3]; ATCC11775, ampicillin alone, FIG. 12): 3.7 µg/mL (≈ 10.6 µM)
- MIC ([3]; ATCC11775, with BPEI 2.65 μg/mL, FIG. 12, read-out: MIC for ampicillin): 3.7 µg/mL (≈ 10.6 µM)
- MIC [4]: ~0.05 µg/mL (≈ 0.143 µM)

SMILES: O=C(N[C@H](CO)[C@H](O)c1ccc([N+](=O)[O-])cc1)C(Cl)Cl [chloramphenicol]
- synergy with BPEI / change of efficacy against MRSA on addition of BPEI [1]: large synergy; also recorded: dramatic synergistic effect
- MIC / concentration inhibiting MRSA growth ([1]; antibiotic without BPEI): 50 µg/mL (≈ 155 µM)
- decrease in the MIC ([1]; on addition of 2.7 μg/mL BPEI, FIG. 8): 10 fold
- MIC / concentration inhibiting MRSA growth [1, 5]: 5 µg/mL (≈ 15.5 µM)

SMILES: COc1cccc(OC)c1C(=O)N[C@@H]1C(=O)N2[C@@H]1SC(C)(C)[C@@H]2C(=O)O [methicillin]
- MIC / concentration inhibiting MRSA growth ([1]; antibiotic without BPEI): > 60 µg/mL
- MIC / concentration inhibiting MRSA growth [1, 5]: 30 µg/mL (≈ 78.9 µM)
- MIC [2, 6]: > 32 µg/mL
- interaction with BPEI by FIC values (synergy / additive) ([2]; checkerboard FIG. 18-21): Synergy occurred

SMILES: CO[C@@H]1[C@@H](OC(N)=O)[C@@H](O)[C@H](Oc2ccc3c(O)c(NC(=O)c4ccc(O)c(CC=C(C)C)c4)c(=O)oc3c2C)OC1(C)C [novobiocin]
- synergy with BPEI / change of efficacy against MRSA on addition of BPEI [1]: did not show any synergy; also recorded: not substantially altered

SMILES: CN[C@H](CC(C)C)C(=O)N[C@H]1C(=O)N[C@@H](CC(N)=O)C(=O)N[C@H]2C(=O)N[C@H]3C(=O)N[C@H](C(=O)N[C@H](C(=O)O)c4cc(O)cc(O)c4-c4cc3ccc4O)[C@H](O)c3ccc(c(Cl)c3)Oc3cc2cc(c3O[C@@H]2O[C@H](CO)[C@@H](O)[C@H](O)[C@H]2O[C@H]2C[C@](C)(N)[C@H](O)[C@H](C)O2)Oc2ccc(cc2Cl)[C@H]1O [vancomycin]
- synergy with BPEI / change of efficacy against MRSA on addition of BPEI [1]: did not show any synergy; also recorded: does not change
- MIC [2]: 4 µg/mL
- interaction with BPEI by FIC values (synergy / additive) ([2]; checkerboard FIG. 18-21): additive
